Measured values reported in patent publication US20190069544A1, “COMPOSITION COMPRISING A MEL, A FATTY ACID METHYL ESTER AND A NON-IONIC […] A HLB VALUE GREATER THAN OR EQUAL TO 12” (OLEON NV, priority 2016, published 2019).

Experiments:
[1] = system: chenopodium plants (Chenopodium album); assay: Cell activity of plant roots by fluorescent markers after treatment; format: in vivo; conditions: 24 to 48 h after treatment, 500 g/ha, 2% ammonium sulphate (FIG. 10)
Experimental: (§1) Composition 2 according to the invention prepared in Example 1 was used in combination with an herbicide active ingredient (glyphosate) in the treatment of chenopodium plants (Chenopodium album). The chenopodium plants used were at a 2 to 3 leaves stage (BBCH 12-13), and were grown in a phytotron at a temperature of 15° C. during the night and 20° C. during the day, with a photoperiod of 14 hours. The glyphosate used was non-formulated (technical ingredient, reference 4521, Sigma-Aldrich®). […]
The evaluation of the effectiveness was carried out by measuring the cell activity of the roots of the plants 24 to 48 h after treatment. The cell activity is measured by staining the cells using fluorescent markers making it possible to distinguish: • the cells having a metabolic activity (living cells), which emit a green fluorescence; • the structures which emit a blue fluorescence; and • the dead cells, which emit a red fluorescence.
When the cell metabolic activity reduces, the green fluorescence reduces.

[2] = system: chenopodium plants (Chenopodium album); assay: Herbicide effectiveness: destruction of the vegetation, naked eye, 14 days after treatment; format: in vivo
Experimental: as §1
Evaluation of the effectiveness was also carried out by observation of the plants with the naked eye 14 days after treatment. The effectiveness is evaluated in percentage of destruction of the vegetation, taking into account the size of the plants and the symptoms of phytotoxicity such as deformation of the leaves, the appearance of white patches and necrosis.

## O=C(O)CNCP(=O)(O)O [glyphosate]
[1]
  Reduction in the intensity of the fluorescence in the cells of the roots (cell metabolic activity): not observed
[2]; 14 days after treatment (FIGS. 11, 12)
  Phytotoxicity, in words: not observed
[2]; 14 days after treatment, dose 500 g/ha, 2% ammonium sulphate, average of 4 pots of 4 plants
  Effectiveness (average), percentage of destruction of the vegetation: 0%
